This note sets out measurements from patent US4737504A, “5-fluoro-and 8-fluoro-trimetoquinol compounds and the processes for their preparation” (priority 1986, dated 1988).

For data set [1], the system named is human platelets (U46619-induced aggregation). Put plainly: inhibition of U46619-induced platelet aggregation in presence of aspirin, human platelet-rich plasma. Type of data set: cell-based. The note with it: U46619 0.5-1.5 μM, aspirin 1 mM. The method, then: (§1) The antiaggregatory and antisecretory activity on human platelets was determined by evaluating the in vitro aggregation and [^14 C]serotonin secretion in human platelet preparations. Blood was taken by venipuncture from normal human volunteers who were reported to be free of medication for at least 10 days before blood drawing. Venous blood samples were mixed with acid-citrate dextrose solution (9:1) and centrifuged at 120×g for 15 minutes at room temperature to obtain platelet-rich plasma, PRP, (Huzoor-Akbar et al., Biochem. Pharmacol., 30: 2013-2020, 1981). The PRP was transferred to polypropylene tubes and stored under an atmosphere of 8% CO2. The remaining blood was centrifuged at 1000×g for 10 minutes to obtain platelet-poor plasma. […] Platelet counts varied between 280,000 to 320,000 per cmm or were adjusted to 300,000 per cmm for the aggregation and secretion experiments. All studies were conducted within 2 hours after PRP recovery.
(§2) For aggregation studies, 0.5 ml of PRP was incubated with drug or vehicle (1-5 μl) for 1 minute at 37° C. before the initiation of aggregation with inducers. […] In all experiments, the minimum concentration of inducer (adenosine diphosphate ADP; epinephrine, E; 15S-hydroxy-11α,9α-epoxymethanoprosta-5Z,13E-dienoic acid, U46619; collagen; and arachidonic acid, AA) which caused maximal irreversible aggregation within each PRP preparation was used. Aggregation was monitored for 4 to 6 minutes after the addition of an inducer and data were presented as a percentage inhibition of either slope or maximal light transmittance changes in the presence of varying drug concentrations.

The test system of data set [2] is human platelets (arachidonic acid-induced aggregation). The experiment in a line: inhibition of arachidonic acid-induced platelet aggregation, human platelet-rich plasma. Type of data set: cell-based. Conditions: arachidonic acid 100-300 μM. As to the method:
as §1, §2

Data set [3] relates to human platelets (arachidonic acid-induced serotonin secretion). The experiment in a line: inhibition of arachidonic acid-induced serotonin secretion, human platelet-rich plasma. Conditions: arachidonic acid 100-300 μM. Type of data set: cell-based. As to the method:
as §1, §2
(§3) Secretion data were calculated as the net increase of serotonin released into the supernatant by each inducer and expressed as a percentage of the total radioactivity in platelets Mayo et al., Biochem. Pharmacol., 30: 2237-2241, 1981. The effect of compounds on serotonin release was expressed as the percentage of inhibition of the maximum release by each inducer and plotted against the log molar concentrations of each agent.

The test system of data set [4] is human platelets (collagen-induced aggregation). The experiment in a line: inhibition of collagen-induced platelet aggregation, human platelet-rich plasma. The data set is classed as cell-based. The note with it: collagen 10-100 μg/ml. The method, then: as §1, §2
Data set [5] deals with human platelets (collagen-induced serotonin secretion). The experiment in a line: inhibition of collagen-induced serotonin secretion, human platelet-rich plasma. Type of data set: cell-based. The note with it: collagen 10-100 μg/ml. The method, then:
as §1, §2, §3

For data set [6], the system named is human platelets (ADP-induced aggregation). Put plainly: inhibition of the secondary phase of ADP-induced platelet aggregation, human platelet-rich plasma. The data set is classed as cell-based. The note with it: ADP 1-3 μM. As to the method:
as §1, §2

In data set [7] the test system is human platelets (ADP-induced serotonin secretion). Put plainly: inhibition of ADP-induced serotonin secretion, human platelet-rich plasma. Type of data set: cell-based. Conditions: ADP 1-3 μM. As to the method: as §1, §2, §3
Data set [8] relates to human platelets (epinephrine-induced aggregation). The experiment in a line: inhibition of the secondary phase of epinephrine-induced platelet aggregation, human platelet-rich plasma. Type of data set: cell-based. The note with it: epinephrine 1-10 μM. The method, then:
as §1, §2

In data set [9] the test system is human platelets (epinephrine-induced serotonin secretion). Put plainly: inhibition of epinephrine-induced serotonin secretion, human platelet-rich plasma. The note with it: epinephrine 1-10 μM. Type of data set: cell-based. As to the method: as §1, §2, §3
For a further data set, the system named is human platelets. The experiment in a line: human platelet aggregation and serotonin release, inducers taken together. Type of data set: cell-based. The note with it: for inhibition of aggregation and serotonin release: each inducer. The method, then: as §1, §2, §3
Data set [10] can be described thus: phenol acidities (pKa) determined spectrophotometrically. Type of data set: physicochemical. Conditions: for pKa: phenol, tris(hydroxymethyl)aminomethane buffer, UV; for times more acidic than 1: relative to trimetoquinol 1. The method, then: Phenol acidities (pKa) were determined spectrophotometrically, as described by Albert et al., "The determination of Ionization Constants" 3rd Ed., Chapman and Hall, London and New York, 1984, by measuring the absorption as a function of pH in tris(hydroxymethyl)aminomethane buffer. Since the catechols tended to oxidize in basic media the buffers were degassed and flushed with argon prior to use.

[11] abbreviates: read-out: IC50 platelet aggregation.
Where [12] appears, read: read-out: pIC50 platelet aggregation (converted).
[13] abbreviates: read-out: IC50 serotonin secretion.
Where [14] appears, read: read-out: pIC50 serotonin secretion (converted).
[15] abbreviates: read-out: IC50 platelet aggregation (secondary phase).
Where [16] appears, read: read-out: pIC50 platelet aggregation (secondary phase) (converted).

Like-named read-outs stand apart in the source and are kept apart here.

For orientation: pKa means the negative logarithm of the acid dissociation constant. For `COc1cc(CC2NCCc3c2cc(O)c(O)c3F)cc(OC)c1OC` (stereo not shown) [Compound 5-F-TMQ, 5-fluoro-trimetoquinol], the IC50 in [1] (setting [11]) was 7.4 µM; in data set [1] (setting [12]), 7.41 µM; in [2] (setting [11]), 77.5 µM; in data set [2] (setting [12]), 77.6 µM; in [3] (setting [13]) it was 55 µM; in [3] (setting [14]) it was 55 µM. Besides, the IC50 in [4] (setting [11]) is 51.3 µM; in data set [4] (setting [12]) it was 51.3 µM; in data set [5] (setting [13]), 13.2 µM; in data set [5] (setting [14]), 13.2 µM; in data set [6] (setting [15]) it was 15.1 µM; in data set [6] (setting [16]), 15.1 µM. Moreover, the IC50 was 17 µM in data set [7] (setting [13]); 17 µM in data set [7] (setting [14]); 14.8 µM in data set [8] (setting [15]); 14.8 µM in data set [8] (setting [16]); 7.4 µM in data set [9] (setting [13]); 7.59 µM in data set [9] (setting [14]). The “inhibition of aggregation and serotonin release” value with human platelets was “inhibitors of aggregation and serotonin release by each inducer”. The compound also gave a pKa in data set [10] of 8.11 ± 0.15. For the same compound, the “times more acidic than 1” value in data set [10] came out at 4 times.
Take `COc1cc(CC2NCCc3cc(O)c(O)c(F)c32)cc(OC)c1OC` (stereo not shown) [Compound 8-F-TMQ, 8-fluoro-trimetoquinol]: the IC50 was 3.9 µM in data set [1] (setting [11]); 3.89 µM in data set [1] (setting [12]); 26.2 µM in [2] (setting [11]); 26.3 µM in data set [2] (setting [12]); 21.9 µM in data set [3] (setting [13]); 21.9 µM in data set [3] (setting [14]). The IC50 in [4] (setting [11]) was 9.8 µM; in [4] (setting [12]), 9.77 µM; in data set [5] (setting [13]), 7.6 µM; in data set [5] (setting [14]) it was 7.59 µM; in data set [6] (setting [15]) it was 6.5 µM; in data set [6] (setting [16]), 6.46 µM. The IC50 in data set [7] (setting [13]) was 6.6 µM; in [7] (setting [14]), 6.61 µM; in data set [8] (setting [15]), 11 µM; in data set [8] (setting [16]) it was 11 µM; in data set [9] (setting [13]), 3.5 µM; in [9] (setting [14]) it was 3.47 µM. For the same compound, the “inhibition of aggregation and serotonin release” value in the data set on human platelets was “inhibitors of aggregation and serotonin release by each inducer”. For the same compound, the “potency relative to 2 as an inhibitor of human platelet activation” value in the data set on human platelets (relative to analog 2) is on record as “about 2 fold”. Also, the pKa in data set [10] is recorded as 7.86 ± 0.15. The “times more acidic than 1” value in data set [10] is on record as 8 times.
